Measurements from US20230000842A1, “METHODS OF TREATING CARTILAGE DISORDERS THROUGH INHIBITION OF CLK AND DYRK” (SAMUMED, LLC, priority 2019, published 2023).

Tests used:
[1] = system: Wnt pathway activity (SW480 colon carcinoma cells stably expressing the Sp5-Luc reporter); assay: Wnt pathway activity screening assay (Sp5-Luc reporter gene assay); settings: Homo sapiens, SW480, Table 4; SW480 cells stably expressing Sp5-Luc reporter, 10-point dose-response from 10 μM, 36 to 48 hours
CLK3 kinase = CLK3 kinase (Homo sapiens, UniProt P49761); assay: CLK3 kinase activity assay (Z-lyte FRET); type: biochemical; settings: Z-lyte Ser/Thr 18 peptide, 156 μM ATP, 1 h at room temperature;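 note: kinase activity read as coumarin/fluorescein emission ratio by FRET, unphosphorylated peptide as 0% and phosphorylated peptide as 100% control, values from non-linear regression of dose-response curves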
Sequence of CLK3 kinase (P49761 whole entry): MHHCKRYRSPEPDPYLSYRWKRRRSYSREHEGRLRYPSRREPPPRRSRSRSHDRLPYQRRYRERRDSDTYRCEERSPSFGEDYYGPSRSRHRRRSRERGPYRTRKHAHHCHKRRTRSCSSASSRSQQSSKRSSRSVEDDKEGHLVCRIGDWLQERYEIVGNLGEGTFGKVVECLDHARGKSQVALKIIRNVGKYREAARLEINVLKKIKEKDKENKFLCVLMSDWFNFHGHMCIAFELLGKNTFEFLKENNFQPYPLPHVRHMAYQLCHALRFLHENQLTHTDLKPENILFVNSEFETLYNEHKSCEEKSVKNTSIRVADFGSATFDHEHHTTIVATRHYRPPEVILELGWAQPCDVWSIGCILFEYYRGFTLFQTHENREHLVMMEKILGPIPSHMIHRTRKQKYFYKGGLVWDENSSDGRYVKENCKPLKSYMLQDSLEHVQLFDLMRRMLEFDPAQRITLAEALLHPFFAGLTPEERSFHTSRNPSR

CLK2 kinase = CLK2 kinase (Homo sapiens, UniProt P49760); assay: CLK2 kinase activity assay (Z-lyte FRET); type: biochemical; settings: Z-lyte Ser/Thr 6 peptide, 60 μM ATP, 1 h at room temperature;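 note: FRET read-out as coumarin to fluorescein emission ratio, unphosphorylated peptide as 0% and phosphorylated peptide as 100% controls, duplicate reactions, non-linear regression fit of dose-response curves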
Sequence of CLK2 kinase (P49760 whole entry): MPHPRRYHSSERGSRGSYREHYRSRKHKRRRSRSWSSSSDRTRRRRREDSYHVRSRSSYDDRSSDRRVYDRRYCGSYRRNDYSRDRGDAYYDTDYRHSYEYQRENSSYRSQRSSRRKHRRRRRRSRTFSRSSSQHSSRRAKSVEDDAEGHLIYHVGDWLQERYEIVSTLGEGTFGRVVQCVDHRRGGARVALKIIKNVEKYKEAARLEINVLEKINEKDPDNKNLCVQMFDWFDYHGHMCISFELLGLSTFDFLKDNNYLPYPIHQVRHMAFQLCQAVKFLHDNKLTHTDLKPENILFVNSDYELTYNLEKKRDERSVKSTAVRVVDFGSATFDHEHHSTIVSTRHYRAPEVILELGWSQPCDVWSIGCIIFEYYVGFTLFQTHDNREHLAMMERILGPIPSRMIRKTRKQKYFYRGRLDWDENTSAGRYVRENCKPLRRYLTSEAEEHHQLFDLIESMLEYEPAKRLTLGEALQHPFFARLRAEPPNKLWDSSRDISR

[2] = system: MMP-3 levels in supernatant of chondrocytes stimulated with IL1-β; assay: Chondrocyte protection assay compound screening (MMP-3 LANCE Ultra); type: cell-based, human; settings: Homo sapiens, Chondrocyte, IL1-β 10 ng/mL overnight, 11-point curves from 3 μM to 0.05 nM; for Emax: read-out: Maximum % Inhibition
Protocol: Human Chondrocyte Cell Culture: Primary human chondrocytes were purchased from Lonza (Walkersville, Md.) and expanded in Chondrocyte Growth Media (CGM, Lonza). Cells between passage 2 and 5 were used for the experiments.
Chondrocytes were plated at 8,000 cells/well in 40 μL/well Chondrocyte Differentiation Medium (Lonza; 500 mL Basal Medium, 25 mL FBS, 0.5 mL GA-1000, 1 mL R3-IGF, 2.5 mL bFGF, 0.5 mL Transferrin, and 1 mL Insulin). After 2 hours of incubation at 37° C. and 5% CO2, IL1-β (Peprotech, Rocky Hill, N.J.) was added to a final concentration of 10 ng/mL. 11 wells in 1 row were left unstimulated for normalization and calculating EC50 values. Cells were incubated at 37° C. and 5% CO2 overnight. Assay plates are spun, 25 μl of supernatant media was collected using (S2 pipettor, Apricot Designs). Cells were lysed using 10 μL of (Cell Titer-Glo, Promega). Luminescent signal detected using an En Vision Multilabel reader (Perkin Elmer). MMP-3 levels were measured in supernatant. Supernatant diluted 1:7 in DMEM. MMP-3 levels in the supernatant were measured using MMP-3 LANCE Ultra detection kit (Perkin Elmer). Briefly, 5 μL of diluted supernatant was transferred to low-volume 384 well plates using (S2 pipettor, Apricot Designs). A standard curve was prepared using MMP-3 analyte (range […]). 1.7 μL of 8× mix of Eu-labelled anti-MMP-3 antibody and ULight labelled anti-MMP-3 antibody was added to the plates using Mantis Liquid handler (Formulatrix). Plates were incubated overnight at room temperature. LANCE signal was detected using an EnVision Multilabel reader (Perkin Elmer), equipped with TR-FRET using excitation wavelength of 320 nm and two emission wavelengths of 615 nm and 665 nm. Data was analyzed according to the kit protocol, using the ratio of […] and the standard curve values were used to calculate the amount of MMP3 in the […] (in pg/ml). The normalized averages (fold change over IL1-β stimulated) for each compound concentration were calculated. EC50 and maximum % inhibition values were calculated using the dose-response nonlinear regression curve-fit in Dotmatics.

SMILES | EC50 [1] [nM] | EC50 (CLK3 kinase) [nM] | EC50 (CLK2 kinase) [nM] | EC50 [2] [nM] | Emax [2] [%]
CN1CCC(Oc2ccc(NC(=O)c3n[nH]c4ccc(-c5ccc(N)nc5)cc34)cc2)CC1 [compound 66] | 477 | 49 | 1 | 4.9 | 62.6
COc1ccc(NC(=O)c2n[nH]c3ccc(-c4cncc(CO)c4)cc23)cn1 [compound 67] | 96.6 | 41 | 1 | ≥ 3000 | 48.7
O=C(Nc1ccc(N2CCCC2)nc1)c1n[nH]c2ccc(-c3cncc(CN4CCC4)c3)cc12 [compound 68] | > 10000 | 139 | 1 | ≥ 3000 | 26.6
O=C(Nc1cccnc1)c1n[nH]c2ccc(-c3cncc(CN4CC(CO)(CO)C4)c3)cc12 [compound 69] | > 10000 | 62 | 2 | 69.7 | 12.3
NC(=O)c1n[nH]c2ccc(-c3cncc(CN4CCCCC4)c3)cc12 [compound 74] | 1960 | 498 | 12 | 2.3 | 62.7
O=C(NCc1cc(F)cc(F)c1)c1n[nH]c2ccc(-c3cncc(CN4CCCCC4)c3)cc12 [compound 77] | 1820 | 1670 | 6 | ≥ 3000 | 84.8
O=C(Nc1ccc(OC(CO)CO)nc1)c1n[nH]c2ccc(-c3cncc(CN4CCCCC4)c3)cc12 [compound 83] | 500 | 73 | 5 | 303 | 
NC(=O)c1ccc(NC(=O)c2n[nH]c3ccc(-c4cncc(CN5CCCCC5)c4)cc23)cn1 [compound 87] | 13 | 11 | 1 | 2220 | 100
O=C(Nc1ccc(C(=O)N2CCCC2)nc1)c1n[nH]c2ccc(-c3cncc(CN4CCCCC4)c3)cc12 [compound 88] | 30 | 12 | 1 | ≥ 3000 | 100
CS(=O)(=O)c1ccc(NC(=O)c2n[nH]c3ccc(-c4cncc(CN5CCCCC5)c4)cc23)cn1 [compound 89] | 27 | 14 | 1 | 5.5 | 79.8
O=C(Nc1ccc(N2CC(CO)(CO)C2)nc1)c1n[nH]c2ccc(-c3cncc(CN4CCCCC4)c3)cc12 [compound 90] | 1500 | 39 | 1 | 6.7 | 29.7
Nc1ncc(NC(=O)c2n[nH]c3ccc(-c4cncc(CN5CCCCC5)c4)cc23)cn1 [compound 96] | 30 | 17 | 1 | 180 | 100
O=C(Nc1cnccn1)c1n[nH]c2ccc(-c3cncc(CN4CCCCCC4)c3)cc12 [compound 99] | 430 | 135 | 2 | ≥ 3000 | 39.6
O=C(Nc1cccnc1)c1n[nH]c2ccc(-c3cncc(CN4CCS(=O)(=O)CC4)c3)cc12 [compound 100] | 210 | 37 | 1 | 616 | 8.6
O=C(Nc1ccc(CN2CCCC2)cc1)c1n[nH]c2ccc(-c3cncnc3)cc12 [compound 103] | 1310 | 1430 | 2 | 307 | 36.3
O=C(Nc1ccc(CN2CCCC2)cc1)c1n[nH]c2ccc(-c3cnccn3)cc12 [compound 104] | 1660 | 378 | 2 | 7.1 | 72.8
CC(C)NC(=O)c1n[nH]c2ccc(-c3cncc(NC4CCNCC4)n3)cc12 [compound 105] | 2400 | 2440 | 1 | 2740 | 53.1
Cn1cc(-c2cc3c(C(=O)Nc4ccc(OCCN5CCCC5)cc4)n[nH]c3cc2F)cn1 [compound 108] | 315 | 101 | 1 | ≥ 3000 | 32.1
